# Results from publication PMC11999265, “New routes for spermine biosynthesis” (The Journal of Biological Chemistry, 2025).
# Assays:
# [1] = molecular target: T1, Psychromonas marina CASDH (Psychromonas marina, UniProt A0ABQ6DYR2); assay: LC-MS of benzoylated spermidine in E. coli extract; type: cell-based; settings: endogenous putrescine, BL21speD, coexpressed with CASDC
# T1 sequence (A0ABQ6DYR2 1-405): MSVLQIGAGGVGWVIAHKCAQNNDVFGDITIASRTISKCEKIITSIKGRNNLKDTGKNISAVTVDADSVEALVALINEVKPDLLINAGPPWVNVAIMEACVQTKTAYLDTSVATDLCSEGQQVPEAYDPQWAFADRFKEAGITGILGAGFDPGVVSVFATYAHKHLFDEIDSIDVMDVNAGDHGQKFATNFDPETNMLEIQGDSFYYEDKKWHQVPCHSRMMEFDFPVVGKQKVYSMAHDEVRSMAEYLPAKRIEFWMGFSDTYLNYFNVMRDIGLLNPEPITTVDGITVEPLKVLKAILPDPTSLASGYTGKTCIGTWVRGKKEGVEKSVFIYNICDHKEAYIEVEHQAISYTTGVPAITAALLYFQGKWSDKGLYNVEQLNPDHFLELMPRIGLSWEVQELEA
# [2] = molecular target: T2, Brucella abortus CASDH (Brucella abortus, UniProt Q2YPK8); settings: endogenous putrescine, BL21speD, coexpressed with CASDC
# T2 construct: gene BAB1_0364
structure (smiles),measurement,setting,value
NCCCCN [putrescine],LC-MS of benzoylated spermidine in E. coli extract,[1],all CASDH/CASDC pairs were able to synthesize spermidine in the spermidine-void BL21speD cells
same,LC-MS of benzoylated spermidine in E. coli extract,[2],all CASDH/CASDC pairs were able to synthesize spermidine in the spermidine-void BL21speD cells
